# From patent US20220331357A1, “COMPOSITIONS AND METHODS FOR THE PREVENTION AND TREATMENT OF PANCREATITIS” (Duke University, priority 2019, published 2022)
# Like-named read-outs stand apart in the source and are kept apart here.
# Key:
# [1] = tested on: pressure-induced pancreatitis; test: ERCP pressure-induced pancreatitis, nicotinic agonists; type: in vivo
# Source text: GTS-21 (DMXBA) is a derivative of the natural product anabaseine that acts as a partial agonist at neural nicotinic acetylcholine receptors. GTS-21 is 3-2,4-dimethoxybenzylidene anabaseine.
# Piezol = target: T1, Piezol (Mus musculus, UniProt E2JF22); test: Yoda1 activation of Piezol in pancreatic acinar cells; type: cell-based, mice
# T1 construct: endogenous in cells; host or cells: isolated pancreatic acini / acinar cells (primary, mouse)
# Description: Pathological activation of Piezol leads to [Ca^2+]i overload, mitochondrial dysfunction, trypsinogen activation, and acinar cell necrosis. Moreover, Piezol activation explains how elevation of intrapancreatic duct pressure (e.g., ERCP or gallstone impaction) causes pancreatitis. Piezol can be activated by mechanical pushing or shear stress. A method for studying the effects of shear stress on isolated pancreatic acini in vitro was developed. Pancreatic acini are cultured on Matrigel and placed into a fluid flow chamber. Cells can be loaded with either the calcium sensitive dye, Calcium 6-QF (Molecular Devices), or the active trypsin enzyme substrate BZiPAR [rhodamine 110, bis(CBZ-L-isoleucyl-L-prolyl-L-arginine amide)] (10 μM) and imaged using a fluorescence microscope while fluid flow is regulated to control the level of shear stress.
# As shown in FIG. 11(A)-(C), subjecting acinar cells to fluid shear stress at 12 dyne/cm^2 produced a prolonged increase in [Ca^2+]i similar to that seen with supramaximal, pathological concentrations of caerulein and was sufficient to cause trypsin activation. Shear pressure also led to mitochondrial membrane depolarization indicating mitochondrial dysfunction. These effects are specific for Piezol since changes were not observed in Piezol1^aci knockout mice. Yoda1 is a selective agonist for Piezol and can be used to simulate pressure by chemically activating Piezol. […] In order to determine if phosphate might protect against pressure-induced pancreatitis, we observed that phosphate supplementation reduced Yoda1-stimulated elevations in [Ca^2+]i and LDH release.
# [2] = tested on: isolated mouse pancreatic acini; test: Caerulein-induced injury in isolated pancreatic acini; type: cell-based; conditions: for caerulein-induced damage (release of trypsin, IL-1β and LDH): 1, 5 or 10 mM sodium phosphate, pH 7.4, caerulein 10 nM for 30 minutes
# Source text: To evaluate the effects of phosphate on acinar cell function pancreatic acini in vitro were examined High concentrations of caerulein in vitro induce pancreatic injury similar to the effects observed in vivo and this method has been used to study direct effects on pancreatic acinar cells. Specifically, caerulein causes pancreatitis by hyperstimulating the acinar cells through the CCK1 receptor. In isolated pancreatic acini, caerulein causes trypsin activation, generation of the proinflammatory cytokine cytosolic […], and cell necrosis as manifest by LDH release. Each of these pathological results is seen with caerulein hyperstimulation in vivo.
# It was observed that phosphate supplementation, independent of its buffering effects, reduced caerulein-induced LDH release, a marker of cell damage (FIG. 4). In addition, it was sought to determine if lack of ATP contributes to pancreatitis and whether the protective effects of phosphate are through restoration of intracellular ATP levels. […] Isolated mouse pancreatic acini were treated with caerulein in buffer containing Na2HPO4 concentrations of 1-10 mM. Supernatant LDH was measured by commercial LDH assay. Cytosolic ATP levels were measured using a commercially available fluorometric assay. *P<0.05, **<0.01, ***<0.001.
# All solutions were adjusted to pH 7.4. A supramaximal concentration of caerulein (10 nM) was added for 30 minutes as indicated after which media were analyzed for release of trypsin, IL-1β and LDH. (*P<0.05, **P<0.01, ***P<0.001).
# Mitochondrial membrane potential was measured in isolated pancreatic acini using tetramethylrhodamine ethyl ester (TMRE) fluorescence.
# Specifically, isolated pancreatic acini were loaded with the mitochondrial fluorescent dye TMRE and incubated in phosphate-free buffer with a supramaximal concentration of caerulein (10 nM). TMRE fluorescence and intracellular ATP levels were measure after 30 minutes. *P<0.05, ****P<0.0001.
# Isolated pancreatic acini loaded with TMRE were incubated in buffer with 0 or 5 mM phosphate (left panel). Effects of increasing phosphate concentrations on ATP production are shown in the right panel. *P<0.05, **P<0.01, ****P<0.0001. These findings illustrate the requirement for Pi in maintaining and restoring mitochondrial function and ATP synthesis under the stress of caerulein hyperstimulation.
# [3] = tested on: pancreatic acini from C57BL/6J mice; type: cell-based; conditions: 50 mM ethanol
# Description: In order to determine the effect of ethanol exposure and phosphate levels on acinar cell function, studies were conducted in vitro. Pancreata was harvested from ND-fed and LPD-fed C57BL/6J mice and isolated acinar cells using phosphate-free buffer solutions. Acinar cell function was assessed at various concentrations of ethanol (0-50 mM).
# Next, it was investigated as to whether phosphate supplementation could preserve pancreatic acinar cell function. Pancreatic acini from LPD-fed mice were isolated in phosphate-free buffer and treated with 50 mM ethanol and 0-5 mM Na2HPO4.
# To further explore the mechanism underlying the effect of phosphate on ethanol-induced acinar cell dysfunction, cellular ATP content and mitochondrial function was investigated.
# In order to determine if phosphate sensitizes mitochondria to the effects of alcohol, we measured TMRE fluorescence intensity, a measure of mitochondrial membrane potential that indicates normal mitochondrial function.
# Pancreatic acini from LPD-fed mice were again isolated in phosphate-free buffer and treated with 50 mM ethanol and 0-5 mM Na2HPO4.
# [4] = tested on: ethanol-induced pancreatitis in mice
# Source text: These findings raise the question of whether phosphate deficiency contributes to the progression of pancreatitis. This may be particularly relevant to alcohol-induced pancreatitis, given that alcoholic patients are susceptible to hypophosphatemia due to nutritional deficiencies and the effects of alcohol ingestion on phosphate absorption. Therefore, it was hypothesized that low phosphate levels may be predispose to alcohol-induced pancreatic injury. To test this hypothesis, we placed mice on a low phosphate diet and determined their susceptibility to ethanol. Animals were placed on a chow diet containing low amounts of phosphate (Pi) for three weeks. The low phosphate diet (Envigo #TD.140659) was comprised of 0.02% Pi compared to normal chow diet which contained 1% Pi. Serum levels of phosphate declined in mice on a low phosphate diet from normal values of 2.2 mM to 1.4 mM (FIG. 12). In order to determine if the diet rendered mice more sensitive to ethanol, mice were administered ethanol by orogastric gavage at […] (30% ethanol at 10 mL/kg) daily for five days (Control mice were gavaged with water). Mice were euthanized 12 hours after the last dose of ethanol. The pancreatitis severity scoring system is a composite of edema, necrosis, inflammatory cell infiltration and hemorrhage severity as previously published. […]
# [5] = tested on: ERCP pancreatitis in mice; test: ERCP pancreatitis mouse model (retrograde pancreatic duct infusion); type: in vivo; conditions: mice on low phosphate diet; 200 μg/g intraperitoneal 1 and 4 hours after induction; 24 hours
# Source text: For this study, a mouse model of this form of pancreatitis was employed.
# caerulein-treated mice = test: Caerulein-induced pancreatitis in mice; type: in vivo; conditions: 250 μg/g Na2HPO4 1 hour after first of 6 hourly caerulein injections (50 ng/g); vs normal saline
# Source text: Caerulein-induced pancreatitis in mice is an established model of acute experimental pancreatitis. Hyperstimulation of the pancreas by cholecystokinin or its analogue caerulein is a commonly used model of experimental acute pancreatitis in rodents. Caerulein produces mild to moderate, non-fatal pancreatitis that resolves spontaneously.
# As shown in FIGS. 3A-3C, phosphate supplementation reduced all parameters of pancreatitis following caerulein administration including serum amylase levels (FIG. 3A), pancreatic MPO levels (FIG. 3B) and pancreatic histology (FIG. 3C). Specifically, mice (C56BL/6 adult mice) were treated with 6 hourly injections of caerulein sulfate (50 ng/g) by intraperitoneal injection. Sodium phosphate (250 μg/g Na2HPO4) and normal saline (NS) were given 1 hour after the first injection. The study was terminated 1 hour after the last caerulein injection at which time, blood and pancreas tissue are collected for measurements of serum amylase, and pancreatic edema, MPO, and histological pancreatitis severity. Pancreatic myeloperoxidase (MPO) and serum amylase levels were measured by commercially available assays. **P<0.01 vs. normal saline in caerulein-treated mice.
# [6] = caerulein 10 nM, phosphate-free buffer, 30 minutes
# [7] = LPD-derived acini, phosphate-free buffer
# [8] = ERCP pressure-induced pancreatic inflammation
# T1 sequence (E2JF22 whole entry): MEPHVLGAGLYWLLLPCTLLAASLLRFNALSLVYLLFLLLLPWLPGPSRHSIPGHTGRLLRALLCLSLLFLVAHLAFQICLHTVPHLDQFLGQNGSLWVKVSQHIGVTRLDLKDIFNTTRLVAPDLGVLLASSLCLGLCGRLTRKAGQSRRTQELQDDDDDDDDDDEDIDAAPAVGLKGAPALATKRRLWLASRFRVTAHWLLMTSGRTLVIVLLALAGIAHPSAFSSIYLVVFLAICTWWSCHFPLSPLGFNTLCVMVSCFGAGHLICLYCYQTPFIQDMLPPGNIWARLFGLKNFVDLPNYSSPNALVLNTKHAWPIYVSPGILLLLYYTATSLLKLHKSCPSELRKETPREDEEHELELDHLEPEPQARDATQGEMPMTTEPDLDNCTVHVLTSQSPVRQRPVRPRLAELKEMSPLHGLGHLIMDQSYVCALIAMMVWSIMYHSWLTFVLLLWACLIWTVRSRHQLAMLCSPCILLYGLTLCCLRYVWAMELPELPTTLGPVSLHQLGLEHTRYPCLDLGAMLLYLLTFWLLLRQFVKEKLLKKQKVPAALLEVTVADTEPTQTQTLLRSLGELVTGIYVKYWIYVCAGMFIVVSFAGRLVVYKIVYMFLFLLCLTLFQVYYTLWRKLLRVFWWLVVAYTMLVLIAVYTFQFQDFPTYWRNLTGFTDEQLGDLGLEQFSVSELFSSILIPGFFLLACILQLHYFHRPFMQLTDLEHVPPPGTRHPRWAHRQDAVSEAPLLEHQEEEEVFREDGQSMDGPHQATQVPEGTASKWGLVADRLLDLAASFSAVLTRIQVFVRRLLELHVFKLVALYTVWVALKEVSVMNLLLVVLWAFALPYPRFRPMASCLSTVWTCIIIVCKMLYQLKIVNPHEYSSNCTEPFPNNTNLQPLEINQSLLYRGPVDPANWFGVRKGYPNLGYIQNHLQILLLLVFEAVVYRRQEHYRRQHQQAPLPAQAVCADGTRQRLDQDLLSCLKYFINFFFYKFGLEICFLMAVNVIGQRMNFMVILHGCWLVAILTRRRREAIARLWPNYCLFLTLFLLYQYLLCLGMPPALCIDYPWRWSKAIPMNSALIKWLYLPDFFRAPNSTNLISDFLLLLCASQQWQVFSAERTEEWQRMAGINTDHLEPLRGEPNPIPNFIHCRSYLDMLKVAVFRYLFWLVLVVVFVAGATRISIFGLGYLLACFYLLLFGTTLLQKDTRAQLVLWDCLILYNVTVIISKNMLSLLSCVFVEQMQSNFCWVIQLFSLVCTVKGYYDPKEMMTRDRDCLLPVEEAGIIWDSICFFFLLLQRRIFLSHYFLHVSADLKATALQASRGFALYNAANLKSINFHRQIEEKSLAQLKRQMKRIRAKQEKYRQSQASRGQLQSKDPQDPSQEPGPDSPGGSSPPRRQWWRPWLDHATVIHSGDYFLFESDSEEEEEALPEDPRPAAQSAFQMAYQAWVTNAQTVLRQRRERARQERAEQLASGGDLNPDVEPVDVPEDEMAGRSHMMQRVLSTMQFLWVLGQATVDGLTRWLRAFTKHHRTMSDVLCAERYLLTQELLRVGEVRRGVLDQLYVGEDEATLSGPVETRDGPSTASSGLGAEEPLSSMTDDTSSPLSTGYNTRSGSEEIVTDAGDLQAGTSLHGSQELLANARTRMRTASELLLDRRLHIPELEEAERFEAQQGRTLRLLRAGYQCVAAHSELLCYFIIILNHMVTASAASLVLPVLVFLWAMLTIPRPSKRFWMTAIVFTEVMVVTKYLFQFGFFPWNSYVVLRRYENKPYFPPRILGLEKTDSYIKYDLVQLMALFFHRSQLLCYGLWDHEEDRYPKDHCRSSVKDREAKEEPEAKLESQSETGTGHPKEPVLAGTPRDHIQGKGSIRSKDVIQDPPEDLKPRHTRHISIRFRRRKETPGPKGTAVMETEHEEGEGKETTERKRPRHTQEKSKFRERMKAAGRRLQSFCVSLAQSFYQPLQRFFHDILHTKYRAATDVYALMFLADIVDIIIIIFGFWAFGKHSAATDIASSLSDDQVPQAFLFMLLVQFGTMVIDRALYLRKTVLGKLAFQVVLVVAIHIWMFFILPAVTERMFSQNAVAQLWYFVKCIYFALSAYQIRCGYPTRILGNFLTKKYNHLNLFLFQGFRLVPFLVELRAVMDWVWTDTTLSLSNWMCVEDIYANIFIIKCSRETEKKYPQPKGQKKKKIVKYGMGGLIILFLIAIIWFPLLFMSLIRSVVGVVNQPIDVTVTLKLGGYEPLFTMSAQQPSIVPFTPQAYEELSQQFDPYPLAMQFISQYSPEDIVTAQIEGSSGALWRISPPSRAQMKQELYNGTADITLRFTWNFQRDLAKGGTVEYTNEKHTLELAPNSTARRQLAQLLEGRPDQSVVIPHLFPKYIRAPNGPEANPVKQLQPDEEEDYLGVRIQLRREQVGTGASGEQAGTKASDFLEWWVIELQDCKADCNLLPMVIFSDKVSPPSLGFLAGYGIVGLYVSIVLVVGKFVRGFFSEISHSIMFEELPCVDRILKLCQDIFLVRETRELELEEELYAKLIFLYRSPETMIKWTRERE
molecule,measurement,setting,value
"COc1ccc(/C=C2\CCCN=C2c2cccnc2)c(OC)c1 [GTS-21, 3-2,4-dimethoxybenzylidene anabaseine]",protection of the pancreas against pressure-induced pancreatitis,[1]; prior splenectomy,abolished
same,protection against pressure-induced acute pancreatitis,[1]; splenocytes depleted of T cells,do not protect
same,protection of the pancreas against pressure-induced pancreatitis,[1]; systemic administration,significantly protected
Clc1cccc(Cl)c1CSc1nnc(-c2cnccn2)s1 [Yoda1],LDH release,Piezol; Yoda1 25 μM,increased
same,[Ca2+]i,Piezol; Yoda1 25 μM,caused an elevation
caerulein,ATP production,[2]; [6],reduced ATP production
same,mitochondrial membrane potential (TMRE fluorescence),[2]; [6],caused mitochondrial depolarization
O=P([O-])(O)O.[Na+] [NaH2PO4],"caerulein-induced damage (release of trypsin, IL-1β and LDH)",[2],protects
same,mitochondrial function (TMRE fluorescence),"[2]; caerulein hyperstimulation, 0 or 5 mM phosphate",dose-dependently restored
same,ATP synthesis,"[2]; caerulein hyperstimulation, increasing phosphate concentrations",dose-dependently restored
CCO [ethanol],TMRE fluorescence intensity,[3]; LPD acini,significantly decreased
same,total cellular ATP levels,[3]; LPD-derived acini,significantly decreased
same,Lactate dehydrogenase (LDH),[3]; [7],significantly increased
same,trypsin activity,[3]; [7],significantly increased
same,total cellular ATP levels,[3]; ND-derived acini,not observed
same,LDH and trypsin activity,[3]; acini from mice on normal diet (ND),not seen
phosphate,"caerulein-induced damage (release of trypsin, IL-1β and LDH)",[2],improved
same,Yoda1-stimulated LDH release,Piezol; phosphate supplementation,reduced
same,Yoda1-stimulated elevations in [Ca2+]i,Piezol; phosphate supplementation,reduced
same,ethanol-induced injury,"[4]; mice on low phosphate diet, sodium phosphate 50 mg/kg gavage daily for 5 days",protects
CN1CCCC1c1cccnc1 (centres unmarked) [nicotine],histopathology,[1]; [8],dose-dependently inhibits
same,pancreatic MPO levels,[1]; [8],dose-dependently inhibits
same,pancreatic edema,[1]; [8],dose-dependently inhibits
same,serum amylase,[1]; [8],dose-dependently inhibits
O=P(O)(O)O [sodium phosphate],"pancreatic injury (survival, pancreatic edema)",[5],protected
same,mortality of ethanol-treated mice on the low phosphate diet,"[4]; sodium phosphate 50 mg/kg orogastric gavage daily for 5 days, ethanol 3 mg/kg daily for 5 days",significantly reduced
O=P([O-])([O-])O.[Na+].[Na+] [Na2HPO4],pancreatic MPO levels,caerulein-treated mice,reduced
same,pancreatic histology,caerulein-treated mice,reduced
same,serum amylase levels,caerulein-treated mice,reduced
same,caerulein-induced LDH release,[2]; buffer containing Na2HPO4 1-10 mM,reduced
same,cytosolic ATP levels,"[2]; caerulein-treated acini, Na2HPO4 1-10 mM",restored ATP levels in a dose-dependent fashion
same,ATP levels,"[3]; LPD acini, 0-5 mM Na2HPO4",significantly increased
same,TMRE fluorescence intensity,"[3]; LPD acini, 0-5 mM Na2HPO4",markedly improved
same,LDH,"[3]; LPD acini, 5 mM Na2HPO4",significantly decreased
same,trypsin activity,"[3]; LPD acini, 5 mM Na2HPO4",significantly decreased
